Columns and labels:
[1] = target: T1, hP2X2/3H (Homo sapiens, UniProt P56373+Q9UBL9); assay: Calcium uptake assay (Ca influx), P2X antagonist assay, P2X2/3 heteromer; format: cell-based; details: inhibition of agonist-induced calcium influx
T1 construct: expressed in transfected cells
T1 sequence (P56373 1-397): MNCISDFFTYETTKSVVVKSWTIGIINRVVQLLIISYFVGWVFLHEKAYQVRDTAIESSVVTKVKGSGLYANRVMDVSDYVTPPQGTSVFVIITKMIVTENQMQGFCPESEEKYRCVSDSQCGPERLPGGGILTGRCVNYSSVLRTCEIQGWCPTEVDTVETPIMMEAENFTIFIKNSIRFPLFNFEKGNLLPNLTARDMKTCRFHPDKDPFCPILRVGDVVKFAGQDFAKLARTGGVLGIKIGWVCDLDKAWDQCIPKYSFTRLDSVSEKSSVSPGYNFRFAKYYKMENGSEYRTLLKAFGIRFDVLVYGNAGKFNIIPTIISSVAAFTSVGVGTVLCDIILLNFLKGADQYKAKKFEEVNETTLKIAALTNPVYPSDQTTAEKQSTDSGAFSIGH
T1 sequence (Q9UBL9 1-471): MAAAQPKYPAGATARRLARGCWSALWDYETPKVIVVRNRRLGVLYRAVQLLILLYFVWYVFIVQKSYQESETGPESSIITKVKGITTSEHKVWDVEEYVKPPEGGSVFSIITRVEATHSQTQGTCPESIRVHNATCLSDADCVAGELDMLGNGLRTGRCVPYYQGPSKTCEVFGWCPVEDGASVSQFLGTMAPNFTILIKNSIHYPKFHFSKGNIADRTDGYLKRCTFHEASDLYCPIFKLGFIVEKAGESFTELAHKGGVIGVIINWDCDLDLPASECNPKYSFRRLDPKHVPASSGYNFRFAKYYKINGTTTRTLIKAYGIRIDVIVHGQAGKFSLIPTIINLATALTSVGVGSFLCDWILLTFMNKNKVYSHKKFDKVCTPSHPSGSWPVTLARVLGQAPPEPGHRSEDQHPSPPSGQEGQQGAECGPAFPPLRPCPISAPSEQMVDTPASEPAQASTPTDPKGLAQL
Source text: (§1) Human P2X3 (Accession no. NM_002559), P2X2 (Accession no. NM_170682) and Rat P2X3 (Accession no. NM_031075) and P2X2 (Accession no. NM_053656) are cloned into a mammalian expression vector (e.g., pcDNAS/TO or pcDNA3 Invitrogen). The human P2X2/3 chimera clone is created as described by Neelands et al, and then cloned into an expression vector as above. Receptors are expressed in cells (e.g., HEK293 or 1321N1 (obtained from the ECACC)) via transient transfection using standard lipid mediated transfection, or by creation of stable transfectants for each receptor. For expression of the P2X2/3 heteromeric receptor, the P2X3 expression vector is stably transfected into a cell line already stably expressing P2X2. P2X2/3 heteromer function is isolated using pharmacological methods. Cell lines are maintained in DMEM+5% Glutamax, the appropriate level of selective antibiotic, and 10% heat inactivated FBS.
(§2) Functional activity of compounds at the P2X receptor is determined by measuring their ability to inhibit agonist-induced calcium influx. Compounds are tested for antagonist activity against the P2X2/3 chimera, the P2X3 homomer, or the P2X2/3 heteromer. At the start of each screening day, the agonist EC50 is determined. Compound % inhibition or IC50s are subsequently determined using a predetermined agonist concentration (EC50-90 depending on cell line) as a stimulus. The agonists used are αβMeATP, ATP, or other ATP analogs. Compounds may be tested at concentrations ranging from 1 pM to 10 μM.
(§3) To test for antagonist activity, cells expressing the appropriate receptor are seeded onto 96 or 384 well plates 18-24 hours prior to assay. On the day of the assay, cells are loaded with calcium-sensitive fluorescent dye (e.g., Fluo-4 no wash reagent-Invitrogen cat#F36206, or the BD™ PBX Calcium Assay Kit-BD cat #640175) in Hank's Buffered Salt Solution (HBSS) with up to 10 mM supplemental CaCl2. Plates are incubated at 37° C. and then equilibrated at room temperature. Antagonism of agonist-induced calcium influx is measured using a fluorescent imaging plate reader (e.g. FLIPR^TETRA, Molecular Devices, Sunnyvale, Calif.). The assay comprises two stages: a pre-treatment phase followed by a treatment phase. Compounds may be tested as follows: For the pre-treatment phase, 50 μL of 3× concentration of test compound in HBSS is added to cells containing 100 μL of dye loading media to achieve a final concentration of 1× test compound. For the treatment phase, at a set interval after pre-treatment (1-30 minutes), 50 μL of 1× test compound plus 4× agonist solution is added, resulting in a final concentration of 1× compound and 1× agonist. Fluorescence is measured at 0.1-3 second intervals—with an excitation wavelength of 494 nm and an emission wavelength of 515 nm. Responses are measured as (peak fluorescence after agonist addition) minus (baseline fluorescence prior to treatment). Percent inhibition is calculated as follows:
(§4) [formula] IC50 values are determined by analyzing dose response data in a 4 parameter logistic fit using GraphPad Prizm.
(§5) The following compounds have been or can be prepared according to the synthetic methods described herein. A calcium uptake assay was performed as described above and the activity of each compound is expressed as follows: […]

[2] = target: T2, hP2X3 (Homo sapiens, UniProt P56373); assay: Calcium uptake assay (Ca influx), P2X antagonist assay, P2X3 homomer; format: cell-based; details: inhibition of agonist-induced calcium influx
T2 construct: expressed in transfected cells
T2 sequence (P56373 1-397): T1 sequence (P56373 1-397)
Source text: as §1, §2, §3, §4, §5

SMILES	IC50 [1] [nM]	IC50 [2] [nM]
Cc1ccc(-c2cc(C(=O)NCc3ccc(C)nc3)cc(-c3ccccc3C#N)c2)nc1 [Compound 17, 2′-Cyano-5-(5-methyl-pyridin-2-yl)-biphenyl-3-carboxylic acid (6-methyl-pyridin-3-ylmethyl)-amide]	24.5	21.6
Cc1ccc(-c2cc(C(=O)NCc3ccc(C)nc3)cc(-c3cccnc3C#N)c2)nc1 [Compound 42, 3-(2-Cyano-pyridin-3-yl)-5-(5-methyl-pyridin-2-yl)-N-(6-methyl-pyridin-3-ylmethyl)-benzamide]	50.5	15.1
COCC(CO)NC(=O)c1cc(-c2ccc(C)cn2)cc(-c2cc(C)ccc2C#N)c1 (stereo not drawn) [Compound 74, 2′-Cyano-5′-methyl-5-(5-methyl-pyridin-2-yl)-biphenyl-3-carboxylic acid (2-hydroxy-1-methoxymethyl-ethyl)-amide]	5580	138
Cc1ccc(-c2cc(C(=O)NCc3cnc(C)nc3)cc(-c3ccc(C)cn3)c2)cc1 [Compound 1, 4′-Methyl-5-(5-methyl-pyridin-2-yl)-biphenyl-3-carboxylic acid (2-methyl-pyrimidin-5-ylmethyl)-amide]	87.6	58.8
Cc1ccc(-c2cc(C(=O)N[C@@H](C)CO)cc(-c3ncccc3C(F)(F)F)c2)nc1 [Compound 81, N-((S)-2-Hydroxy-1-methyl-ethyl)-3-(5-methyl-pyridin-2-yl)-5-(3-trifluoromethyl-pyridin-2-yl)-benzamide]	1220	48.7
Cc1ccc(-c2cc(C(=O)NCc3ccc(C)nc3)cc(-c3ccccc3CO)c2)cc1 [Compound 8, 2″-Hydroxymethyl-4-methyl-[1,1′;3′,1″]terphenyl-5′-carboxylic acid (6-methyl-pyridin-3-ylmethyl)-amide]	116	182
COc1ccc(-c2cc(C(=O)NCc3ccc(C)nc3)cc(-c3ccc(C)cc3)c2)cc1 [Compound 7, 4″-Methoxy-4-methyl-[1,1′;3′,1″]terphenyl-5′-carboxylic acid (6-methyl-pyridin-3-ylmethyl)-amide]	9200	2460
Cc1ccc(-c2cc(C(=O)NCc3ccc(C)nc3)cc(N3CCC[C@H]3CO)c2)cc1 [Compound 59, (S)-5-(2-(Hydroxymethyl)pyrrolidin-1-yl)-4′-methyl-N-((6-methylpyridin-3-yl)methyl)biphenyl-3-carboxamide]	127	65.8
Cc1ccc(-c2cc(C(=O)N[C@@H](C)CO)cc(-c3c(C)cccc3C#N)c2)nc1 [Compound 72, 6′-Cyano-2′-methyl-5-(5-methyl-pyridin-2-yl)-biphenyl-3-carboxylic acid ((S)-2-hydroxy-1-methyl-ethyl)-amide]	–	59.4
Cc1ccc(-c2cc(C(=O)N[C@@H](C)CO)cc(-c3ccccc3CO)c2)nc1 [Compound 82, 2′-Hydroxymethyl-5-(5-methyl-pyridin-2-yl)-biphenyl-3-carboxylic acid ((S)-2-hydroxy-1-methyl-ethyl)-amide]	–	33.2
Cc1ccc(-c2cc(C(=O)N[C@@H](C)CO)cc(-c3ccc(C#N)cc3C)c2)nc1 [Compound 76, 4′-Cyano-2′-methyl-5-(5-methyl-pyridin-2-yl)-biphenyl-3-carboxylic acid ((S)-2-hydroxy-1-methyl-ethyl)-amide]	–	77.7

Further molecules by falling IC50 [2], results first:

IC50 [1] [nM]	IC50 [2] [nM]	SMILES
–	626	Cc1ccc(-c2cc(C(=O)NCc3ccc(C)nc3)cc(-c3ccc(C#N)cc3)c2)cc1 [Compound 24, 4″-Cyano-4-methyl-[1,1′;3′,1″]terphenyl-5′-carboxylic acid (6-methyl-pyridin-3-ylmethyl)-amide]
503	309	Cc1ccc(-c2cc(C(=O)NCc3ccc(C)nc3)cc(-c3ccc(CO)cc3)c2)cc1 [Compound 26, 4″-Hydroxymethyl-4-methyl-[1,1′;3′,1″]terphenyl-5′-carboxylic acid (6-methyl-pyridin-3-ylmethyl)-amide]
418	95.9	Cc1ccc(-c2cc(C(=O)N[C@H](C)c3cnc(C)nc3)cc(N3CCCCC3=O)c2)nc1 [Compound 56, 3-(5-Methyl-pyridin-2-yl)-N-[(R)-1-(2-methyl-pyrimidin-5-yl)-ethyl]-5-(2-oxo-piperidin-1-yl)-benzamide]
509	55.2	Cc1ccc(-c2cc(C(=O)N[C@H](C)c3cnc(C)nc3)cc(-c3ccccc3C(=O)N(C)C)c2)nc1 [Compound 54, 5′-(5-Methyl-pyridin-2-yl)-biphenyl-2,3′-dicarboxylic acid 2-dimethylamide 3′-{[(R)-1-(2-methyl-pyrimidin-5-yl)-ethyl]-amide}]
–	43.2	Cc1ccc(-c2cc(C(=O)N[C@@H](C)CO)cc(-c3cccc(F)c3F)c2)nc1 [Compound 70, 2′,3′-Difluoro-5-(5-methyl-pyridin-2-yl)-biphenyl-3-carboxylic acid ((S)-2-hydroxy-1-methyl-ethyl)-amide]
126	24.1	Cc1ncc([C@@H](C)NC(=O)c2cc(-c3ccccn3)cc(-c3ccccc3C#N)c2)cn1 [Compound 43, 2′-Cyano-5-pyridin-2-yl-biphenyl-3-carboxylic acid [(R)-1-(2-methyl-pyrimidin-5-yl)-ethyl]-amide]
169	23.8	Cc1ccc(-c2cc(C(=O)NCc3ccc(C)nc3)cc(-c3cnc(N)cn3)c2)nc1 [Compound 41, 3-(5-Amino-pyrazin-2-yl)-5-(5-methyl-pyridin-2-yl)-N-(6-methyl-pyridin-3-ylmethyl)-benzamide]
18.4	21.1	Cc1ccc(-c2cc(C(=O)N[C@H](C)c3cnc(C)nc3)cc(-c3ccccc3CO)c2)nc1 [Compound 34, 2′-Hydroxymethyl-5-(5-methyl-pyridin-2-yl)-biphenyl-3-carboxylic acid [(R)-1-(2-methyl-pyrimidin-5-yl)-ethyl]-amide]
17.6	14.2	Cc1ccc(-c2cc(C(=O)N[C@H](C)c3cnc(C)nc3)cc(-c3ccccc3C#N)c2)nc1 [Compound 31, 2′-Cyano-5-(5-methyl-pyridin-2-yl)-biphenyl-3-carboxylic acid [(R)-1-(2-methyl-pyrimidin-5-yl)-ethyl]-amide]
–	7.1	Cc1ccc(-c2cc(C(=O)N[C@@H](C)CO)cc(-c3ccccc3CO)c2)c(C#N)c1 [Compound 88, 2-Cyano-2″-hydroxymethyl-4-methyl-[1,1′;3′,1″]terphenyl-5′-carboxylic acid ((S)-2-hydroxy-1-methyl-ethyl)-amide]

From patent US9133122B2, “Amide compounds, compositions and uses thereof” (EVOTEC AG, priority 2008, dated 2015)
